Target: GST-tagged truncated human mutant G2019S LRRK2 (Homo sapiens (Human), UniProt Q5S007, G2019S)
Experiment: LRRK2 G2019S Km ATP LanthaScreen assay
Type: biochemical
Conditions: G2019S LRRK2, 134 μM ATP (Km ATP), LRRKtide substrate
Summary of the method: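 Ten-point compound series (highest 9.99 μM in DMSO) preincubated 15 min with 1.25 nM GST-tagged truncated human LRRK2 G2019S, then 90 min reaction at ambient temperature with 134 μM ATP (Km) and fluorescein-labelled LRRKtide, pH 8.5. Phosphorylation read as 520/495 nm emission ratio via Tb-labelled antibody; IC50 from 4P logistic regression.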

Sequence of GST-tagged truncated human mutant G2019S LRRK2 (Q5S007 970-2527 G2019S): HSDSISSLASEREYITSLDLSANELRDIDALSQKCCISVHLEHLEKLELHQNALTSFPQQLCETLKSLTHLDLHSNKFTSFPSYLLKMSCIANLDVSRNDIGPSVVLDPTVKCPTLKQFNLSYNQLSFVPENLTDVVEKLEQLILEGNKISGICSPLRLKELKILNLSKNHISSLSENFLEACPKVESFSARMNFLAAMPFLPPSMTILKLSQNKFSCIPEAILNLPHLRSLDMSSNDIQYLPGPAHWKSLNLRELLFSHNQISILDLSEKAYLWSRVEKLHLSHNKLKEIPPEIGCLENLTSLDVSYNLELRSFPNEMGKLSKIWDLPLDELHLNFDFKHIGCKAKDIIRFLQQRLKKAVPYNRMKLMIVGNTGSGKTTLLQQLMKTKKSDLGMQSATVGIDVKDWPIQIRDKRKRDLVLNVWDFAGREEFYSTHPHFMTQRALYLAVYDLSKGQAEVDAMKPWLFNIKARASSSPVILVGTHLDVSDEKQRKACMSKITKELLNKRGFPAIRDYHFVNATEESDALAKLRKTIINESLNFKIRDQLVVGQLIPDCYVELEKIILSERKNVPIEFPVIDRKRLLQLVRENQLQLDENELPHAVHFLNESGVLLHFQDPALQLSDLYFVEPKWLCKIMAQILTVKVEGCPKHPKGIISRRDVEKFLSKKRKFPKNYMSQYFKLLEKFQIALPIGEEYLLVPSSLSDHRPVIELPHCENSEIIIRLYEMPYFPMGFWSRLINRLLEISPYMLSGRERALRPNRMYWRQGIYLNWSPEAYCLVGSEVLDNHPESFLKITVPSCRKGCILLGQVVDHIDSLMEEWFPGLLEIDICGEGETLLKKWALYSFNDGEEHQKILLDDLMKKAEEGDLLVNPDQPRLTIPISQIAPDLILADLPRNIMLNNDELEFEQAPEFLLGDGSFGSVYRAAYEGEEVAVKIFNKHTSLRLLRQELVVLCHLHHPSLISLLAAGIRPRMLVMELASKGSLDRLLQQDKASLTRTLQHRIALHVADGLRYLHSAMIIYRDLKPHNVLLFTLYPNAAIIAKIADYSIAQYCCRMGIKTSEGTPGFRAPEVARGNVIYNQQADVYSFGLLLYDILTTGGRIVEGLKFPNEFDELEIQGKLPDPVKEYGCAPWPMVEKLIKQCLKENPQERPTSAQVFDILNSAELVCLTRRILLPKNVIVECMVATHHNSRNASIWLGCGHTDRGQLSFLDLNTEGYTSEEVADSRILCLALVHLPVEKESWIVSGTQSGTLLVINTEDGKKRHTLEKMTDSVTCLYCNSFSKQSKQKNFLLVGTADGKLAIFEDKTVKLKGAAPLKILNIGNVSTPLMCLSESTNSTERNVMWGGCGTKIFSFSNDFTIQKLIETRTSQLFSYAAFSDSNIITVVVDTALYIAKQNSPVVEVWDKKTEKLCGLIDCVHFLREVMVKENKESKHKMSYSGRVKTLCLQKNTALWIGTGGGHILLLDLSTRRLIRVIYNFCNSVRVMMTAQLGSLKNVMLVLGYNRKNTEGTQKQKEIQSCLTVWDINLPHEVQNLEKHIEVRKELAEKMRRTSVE

| SMILES | LRRK2 pIC50 |
| --- | --- |
| CC(C)c1nn(C(C)(C)C#N)c2c1Nc1ncc(C3CC3)c(n1)N[C@@H]1COC[C@H]1CO2 [Ex-1.15, 2-((10aS,13aS)-8-cyclopropyl-3-isopropyl-10a,11,13a,14-tetrahydro-10H,13H-5,9-(azeno)furo[3,4-k]pyrazolo[3,4-b][1]oxa[4,6,10]triazacyclotridecin-1(4H)-yl)-2-methylpropanenitrile] | 8.27 |
| CC(C)c1nn(C(C)(C)C#N)c2c1Nc1ncc(Cl)c(n1)N[C@@H]1COC[C@H]1CO2 [Ex-1.16, 2-((10aS,13aS)-8-chloro-3-isopropyl-10a,11,13a,14-tetrahydro-10H,13H-5,9-(azeno)furo[3,4-k]pyrazolo[3,4-b][1]oxa[4,6,10]triazacyclotridecin-1(4H)-yl)-2-methylpropanenitrile] | 9.76 |
| CC(C)(C#N)n1nc(C2CC2)c2c1OC[C@@H]1CC[C@H]1Nc1nc(ncc1C(F)(F)F)N2 [Ex-1.17, 2-((10aR,12aR)-3-cyclopropyl-8-(trifluoromethyl)-10,10a,11,12,12a,13-hexahydro-5,9-(azeno)cyclobuta[k]pyrazolo[3,4-b][1]oxa[4,6,10]triazacyclotridecin-1(4H)-yl)-2-methylpropanenitrile] | >10.09 |
| CC(C)c1nn(C2CCOC2)c2c1Nc1ncc(C(F)(F)F)c(n1)N[C@@H]1CC[C@H]1CO2 (stereo partly drawn) [Ex-1.18, (10aR,12aR)-3-isopropyl-1-((R)- or (10aR,12aR)-3-isopropyl-1-((S)-tetrahydrofuran-3-yl)-8-(trifluoromethyl)-1,4,10,10a,11,12,12a,13-octahydro-5,9-(azeno)cyclobuta[k]pyrazolo[3,4-b][1]oxa[4,6,10]triazacyclotridecine] | >10.09 |
| Cn1nc(C(F)(F)F)c2c1OC[C@@H]1CC[C@H]1Nc1nc(ncc1Cl)N2 [Ex-1.19, (10aR,12aR)-8-chloro-1-methyl-3-(trifluoromethyl)-1,4,10,10a,11,12,12a,13-octahydro-5,9-(azeno)cyclobuta[k]pyrazolo[3,4-b][1]oxa[4,6,10]triazacyclotridecine] | 9.87 |
| CCn1nc(C(F)(F)F)c2c1OC[C@@H]1COC[C@H]1Nc1nc(ncc1Cl)N2 [Ex-1.20, (10aS,13aS)-8-chloro-1-ethyl-3-(trifluoromethyl)-1,4,10a,11,13a,14-hexahydro-10H,13H-5,9-(azeno)furo[3,4-k]pyrazolo[3,4-b][1]oxa[4,6,10]triazacyclotridecine] | 9.42 |
| CC(C)(O)Cn1nc(C2CC2)c2c1OC[C@@H]1CC[C@H]1Nc1nc(ncc1C(F)(F)F)N2 [Ex-1.21, 1-((10aR,12aR)-3-cyclopropyl-8-(trifluoromethyl)-10,10a,11,12,12a,13-hexahydro-5,9-(azeno)cyclobuta[k]pyrazolo[3,4-b][1]oxa[4,6,10]triazacyclotridecin-1(4H)-yl)-2-methylpropan-2-ol] | >10.09 |
| CC(C)c1n[nH]c2c1Nc1ncc(C(F)(F)F)c(n1)N[C@@H]1CC[C@H]1CO2 [Ex-1.22, (10aR,12aR)-3-isopropyl-8-(trifluoromethyl)-1,4,10,10a,11,12,12a,13-octahydro-5,9-(azeno)cyclobuta[k]pyrazolo[3,4-b][1]oxa[4,6,10]triazacyclotridecine] | >10.09 |
| Cc1nn(C)c2c1Nc1ncc(C(F)(F)F)c(n1)NCC1(CC1)CO2 [Ex-1.23, 1′,3′-dimethyl-8′-(trifluoromethyl)-1′,4′,10′,11′-tetrahydro-13′H-spiro[cyclopropane-1,12′-[5,9](azeno)pyrazolo[3,4-b][1]oxa[4,6,10]triazacyclotridecine]] | 9.47 |
| Cc1nn(C2CCC2)c2c1OC[C@@H]1CC[C@H]1Nc1nc(ncc1C(F)(F)F)N2 [Ex-2.3, (10aR,12aR)- or (10aS,12aS)-3-Cyclobutyl-1-methyl-8-(trifluoromethyl)-3,4,10,10a,11,12,12a,13-octahydro-5,9-(azeno)cyclobuta[k]pyrazolo[4,3-b][1]oxa[4,6,10]triazacyclotridecine] | 9.12 |
| Cc1nn(C2CCC2)c2c1OC[C@@H]1CC[C@H]1Nc1nc(ncc1C(F)(F)F)N2 [Ex-2.4, (10aR,12aR)- or (10aS,12aS)-3-Cyclobutyl-1-methyl-8-(trifluoromethyl)-3,4,10,10a,11,12,12a,13-octahydro-5,9-(azeno)cyclobuta[k]pyrazolo[4,3-b][1]oxa[4,6,10]triazacyclotridecine] | 6.66 |
| Cc1nn(C)c2c1OCC1(CC1)CNc1nc(ncc1C(F)(F)F)N2 [Ex-2.5, 1′,3′-dimethyl-10′-(trifluoromethyl)-1′,7′,8′,14′-tetrahydro-5′H-spiro[cyclopropane-1,6′-[9,13](azeno)pyrazolo[4,3-b][1]oxa[4,6,10]triazacyclotridecine]] | >10.09 |
| Cc1nn(C)c2c1OCC1CC[C@H]1Nc1nc(ncc1C(F)(F)F)N2 (stereo partly drawn) [Ex-2.10, (10aR,12aR)- or (10aS,12aS)-1,3-dimethyl-8-(trifluoromethyl)-3,4,10,10a,11,12,12a,13-octahydro-5,9-(azeno)cyclobuta[k]pyrazolo[4,3-b][1]oxa[4,6,10]triazacyclotridecine] | >10.09 |
| Cc1nn(C)c2c1OCC1CC[C@H]1Nc1nc(ncc1C(F)(F)F)N2 (stereo partly drawn) [Ex-2.11, (10aR,12aS)- or (10aS,12aR)-1,3-dimethyl-8-(trifluoromethyl)-3,4,10,10a,11,12,12a,13-octahydro-5,9-(azeno)cyclobuta[k]pyrazolo[4,3-b][1]oxa[4,6,10]triazacyclotridecine] | >10.09 |
| Cc1nn(C)c2c1OCC1CC[C@H]1Nc1nc(ncc1C(F)(F)F)N2 (stereo partly drawn) [Ex-2.12, (10aR,12aS)- or (10aS,12aR)-1,3-dimethyl-8-(trifluoromethyl)-3,4,10,10a,11,12,12a,13-octahydro-5,9-(azeno)cyclobuta[k]pyrazolo[4,3-b][1]oxa[4,6,10]triazacyclotridecine] | 7.61 |
| Cc1nn(C)c2c1OCC1CC[C@H]1Nc1nc(ncc1C(F)(F)F)N2 (stereo partly drawn) [Ex-2.13, (10aR,12aS)- or (10aS,12aR)-1,3-dimethyl-8-(trifluoromethyl)-3,4,10,10a,11,12,12a,13-octahydro-5,9-(azeno)cyclobuta[k]pyrazolo[4,3-b][1]oxa[4,6,10]triazacyclotridecine] | >10.09 |
| Cc1nn(C)c2c1OC[C@H]1COC[C@H]1Nc1nc(ncc1C(F)(F)F)N2 [Ex-2.24, (10aS,13aR)- or (10aR,13aS)-1,3-dimethyl-8-(trifluoromethyl)-3,4,10a,11,13a,14-hexahydro-10H,13H-5,9-(azeno)furo[3,4-k]pyrazolo[4,3-b][1]oxa[4,6,10]triazacyclotridecine] | 6.05 |
| Cc1nn(C2CCC2)c2c1OC[C@@H]1COC[C@H]1Nc1nc(ncc1C(F)(F)F)N2 [Ex-2.28, (3aR,15aR)- or (3aS,15aS)-11-cyclobutyl-13-methyl-6-(trifluoromethyl)-2,3,3a,4,10,11,15,15a-octahydro-5,9-(azeno)furo[3,2-k]pyrazolo[4,3-b][1]oxa[4,6,10]triazacyclotridecine] | 9.64 |
| Cc1nn(C2CCC2)c2c1OC[C@@H]1COCC[C@H]1Nc1nc(ncc1C(F)(F)F)N2 [Ex-2.33, (4aR,16aS)- or (4aS,16aR)-12-cyclobutyl-14-methyl-7-(trifluoromethyl)-3,4,4a,5,11,12,16,16a-octahydro-1H-6,10-(azeno)pyrano[4,3-k]pyrazolo[4,3-b][1]oxa[4,6,10]triazacyclotridecine] | 9.11 |
| Cc1nn(C2CCC2)c2c1OC[C@@H]1COCC[C@H]1Nc1nc(ncc1C(F)(F)F)N2 [Ex-2.34, (4aR,16aS)- or (4aS,16aR)-12-cyclobutyl-14-methyl-7-(trifluoromethyl)-3,4,4a,5,11,12,16,16a-octahydro-1H-6,10-(azeno)pyrano[4,3-k]pyrazolo[4,3-b][1]oxa[4,6,10]triazacyclotridecine] | 8.00 |
| Cc1nn(C2CCC2)c2c1OCC1COCCC1Nc1nc(ncc1C(F)(F)F)N2 [Ex-2.35, (4aR,16aR)- and (4aS,16aS)-12-cyclobutyl-14-methyl-7-(trifluoromethyl)-3,4,4a,5,11,12,16,16a-octahydro-1H-6,10-(azeno)pyrano[4,3-k]pyrazolo[4,3-b][1]oxa[4,6,10]triazacyclotridecine] | 8.56 |
| COC1CCC1n1nc(C)c2c1Nc1ncc(C(F)(F)F)c(n1)NC1COCC1CO2 [Ex-2.36, (10aS,13aS)-3-((1R,2R)-(10aS,13aS)-3-((1S,2R)-(10aS,13aS)-3-((1R,2S)-(10aS,13aS)-3-((1R,2R)-(10aR,13aR)-3-((1S,2R)-(10aR,13aR)-3-((1R,2S)-2-methoxycyclobutyl)-1-methyl-8-(trifluoromethyl)-3,4,10a,11,13a,14-hexahydro-10H,13H-5,9-(azeno)furo[3,4-k]pyrazolo[4,3-b][1]oxa[4,6,10]triazacyclotridecine] | 6.31 |
| COC1CCC1n1nc(C)c2c1Nc1ncc(C(F)(F)F)c(n1)NC1COCC1CO2 [Ex-2.37, (10aS,13aS)-3-((1R,2R)-(10aS,13aS)-3-((1S,2R)-(10aS,13aS)-3-((1R,2S)-(10aS,13aS)-3-((1R,2R)-(10aR,13aR)-3-((1S,2R)-(10aR,13aR)-3-((1R,2S)-2-methoxycyclobutyl)-1-methyl-8-(trifluoromethyl)-3,4,10a,11,13a,14-hexahydro-10H,13H-5,9-(azeno)furo[3,4-k]pyrazolo[4,3-b][1]oxa[4,6,10]triazacyclotridecine] | 6.00 |
| COC1CCC1n1nc(C)c2c1Nc1ncc(C(F)(F)F)c(n1)NC1COCC1CO2 [Ex-2.38, (10aS,13aS)-3-((1R,2R)-(10aS,13aS)-3-((1S,2R)-(10aS,13aS)-3-((1R,2S)-(10aS,13aS)-3-((1R,2R)-(10aR,13aR)-3-((1S,2R)-(10aR,13aR)-3-((1R,2S)-2-methoxycyclobutyl)-1-methyl-8-(trifluoromethyl)-3,4,10a,11,13a,14-hexahydro-10H,13H-5,9-(azeno)furo[3,4-k]pyrazolo[4,3-b][1]oxa[4,6,10]triazacyclotridecine] | 6.13 |

From US20250313575A1, “MACROCYCLES AS LRRK2 INHIBITORS, PHARMACEUTICAL COMPOSITIONS, AND USES THEREOF” (Merck Sharp & Dohme LLC, priority 2022, published 2025)
